As a reminder, the TGI is the concentration giving total growth inhibition. A high value points to lower sensitivity of the cells.

Some test systems named below: NCI-H226 lung; UACC-62 melanoma; UO-31 renal; M14 melanoma; A549 NSCLC; HOP-62 NSCLC; ACHN renal; HCC-2998 colon; HCT-116 colon; SNB-19 CNS; SF-539 CNS; HS 578T breast; 786-0 renal; NCI/ADR-RES ovarian; NCI-H460 lung; DU-145 prostate; HT29 colon; SK-OV-3 ovarian; SR leukemia.
What all share (assay): DTP human tumour cell line panel, 48 h

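Cells were grown in 96-well plates and exposed to each compound for 48 hours at five concentrations; endpoints were interpolated linearly between bracketing concentrations, or set to the highest concentration if not reached. TGI denotes the concentration required for complete inhibition of growth.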

Take `c1cc(-c2ccc(Oc3ccc(-c4ccncc4)cc3)cc2)ccn1`: the TGI with NCI-H226 lung, with UACC-62 melanoma, in the test on UO-31 renal, in the test with M14 melanoma, in the test with A549 NSCLC and in the test on HOP-62 NSCLC was more than 100 µM in each case. The TGI is more than 100 µM in the test on ACHN renal; more than 54.5 µM in the test with HCC-2998 colon; more than 100 µM with HCT-116 colon; more than 100 µM in the test with SNB-19 CNS; more than 100 µM in the test with SF-539 CNS; more than 69.9 µM in the test on HS 578T breast. Also, the TGI in the test on 786-0 renal is more than 100 µM; in the test on NCI/ADR-RES ovarian, more than 90.9 µM; in the test on NCI-H460 lung, more than 94.2 µM; with DU-145 prostate, more than 100 µM; with HT29 colon, more than 49.6 µM; in the test with SK-OV-3 ovarian, more than 100 µM. In the test on SR leukemia, this compound had a TGI of 9.97 µM.

Regarding `CC(C)c1cc(C(C)C)c(P2(=O)CC3C(Cl)(Cl)C3(C)C2)c(C(C)C)c1` (stereo not drawn), the TGI in the test with NCI-H226 lung worked out at 34.3 µM; in the test with UACC-62 melanoma it was 21.3 µM; with UO-31 renal, 3.44 µM; with M14 melanoma it was 23.2 µM; in the test with A549 NSCLC it was 25.6 µM; with HOP-62 NSCLC, 29 µM. Moreover, the TGI in the test on ACHN renal was 25.1 µM; in the test on HCC-2998 colon, 26.9 µM; in the test on HCT-116 colon, 20.2 µM; in the test with SNB-19 CNS it was 19.4 µM; in the test with SF-539 CNS, 27.1 µM; with HS 578T breast it was 47.8 µM. For the same compound, the TGI was 14.6 µM in the test with 786-0 renal; 16 µM in the test with NCI/ADR-RES ovarian; 24.4 µM with NCI-H460 lung; 28.9 µM in the test with DU-145 prostate; 24.6 µM in the test with HT29 colon; 31.3 µM with SK-OV-3 ovarian. The TGI in the test on SR leukemia was 3.75 µM.

The values above are taken from PubChem BioAssay (NCI).
